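Method: 48-hour compound exposure of cells in 96-well plates, five concentrations, linear interpolation of endpoints. Definition used: TGI = concentration required for complete inhibition of growth.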
Tests used:
Experiment in all cases: inhibition of tumour cell growth, NCI panel, 48 h
A549 NSCLC = system: A549 NSCLC
CAKI-1 renal = system: CAKI-1 renal
DU-145 prostate = system: DU-145 prostate
EKVX NSCLC = system: EKVX NSCLC
HOP-62 NSCLC = system: HOP-62 NSCLC
IGROV1 ovarian = system: IGROV1 ovarian
K-562 leukemia = system: K-562 leukemia
KM12 colon = system: KM12 colon
NCI-H460 lung = system: NCI-H460 lung
OVCAR-3 ovarian = system: OVCAR-3 ovarian
OVCAR-8 ovarian = system: OVCAR-8 ovarian
RXF 393 renal = system: RXF 393 renal
SK-MEL-2 melanoma = system: SK-MEL-2 melanoma
SK-MEL-28 melanoma = system: SK-MEL-28 melanoma
SN12C renal = system: SN12C renal
SNB-75 CNS = system: SNB-75 CNS
SW-620 colon = system: SW-620 colon
UACC-62 melanoma = system: UACC-62 melanoma
UO-31 renal = system: UO-31 renal
LXFL 529 NSCLC = system: LXFL 529 NSCLC

SMILES	TGI (A549 NSCLC) [µM]	TGI (CAKI-1 renal) [µM]	TGI (DU-145 prostate) [µM]	TGI (EKVX NSCLC) [µM]	TGI (HOP-62 NSCLC) [µM]	TGI (IGROV1 ovarian) [µM]	TGI (K-562 leukemia) [µM]	TGI (KM12 colon) [µM]	TGI (NCI-H460 lung) [µM]	TGI (OVCAR-3 ovarian) [µM]	TGI (OVCAR-8 ovarian) [µM]	TGI (RXF 393 renal) [µM]	TGI (SK-MEL-2 melanoma) [µM]	TGI (SK-MEL-28 melanoma) [µM]	TGI (SN12C renal) [µM]	TGI (SNB-75 CNS) [µM]	TGI (SW-620 colon) [µM]	TGI (UACC-62 melanoma) [µM]	TGI (UO-31 renal) [µM]	TGI (LXFL 529 NSCLC) [µM]
O=c1[nH]n(Cc2ccccc2Cl)c2ccc([N+](=O)[O-])cc12	> 100	> 100	> 100	> 100	> 100	> 100	> 100	> 100	> 100	> 100	> 100	57.9	> 100	> 100	> 100	> 100	> 100	> 100	> 100	
CCCCCCCCCCCCCCCCCCNc1ccn(C2OC(COP(=O)(O)OC3CC(n4cc(F)c(=O)[nH]c4=O)OC3COP(=O)(O)OCC3OC(n4ccc(N)nc4=O)C(O)C3O)C(O)C2O)c(=O)n1 (centres undefined)	> 51	35.5	39.8	> 74.6	> 76.8	54.9	> 100	41.5	> 32.7	> 100	> 51.8	> 75.5	37.3	> 100	98.2	> 100	> 57.3	> 44.4	> 51.9	
CCOC(=O)C1=CN/C(=C(/C)C(=O)OC)SC1C(=O)OCC (centres undefined)	> 100	> 100	> 100	> 100	> 100	> 100	> 31.6	> 100	> 100	> 100	> 100	> 100	> 100	> 100	> 100	> 100	> 100	> 100	> 100	
O=C(Nc1ccc(Cl)cc1)C(=O)C(C(=O)c1ccccc1-c1ccccc1)C1OC(=O)c2ccccc21 (centres undefined)	50.7	55.7		37.9	> 100	> 100	> 100	39.4	40.1		29.3	24.4	55.5	36.6	62.4	93.3	46.2	29.5	36.6	34.2
CN1CCC2(CC1)SC[C@H]1C(=O)N(c3ccc(Cl)cc3)C(=O)N12	> 100	> 100	> 100	> 100	> 100	> 100	> 100	> 100	> 100	> 100	> 100	> 100	> 100	> 100	> 100	> 100	> 100	> 100	> 100	
C=C1C(=O)C23CC1C[C@H](OC(C)=O)[C@H]2C1(C)C(OC(C)=O)C[C@H](O)C(C)(C)[C@H]1C(=O)[C@@H]3OC(C)=O (some centres undefined)	33.7	8.17	25.7	15.7	42.9	25.8	> 21	23.8	33.4	12.7	7.9	9.75	25.9	13.2	15.1	32.8	3.6	9.51	9.75	
OC1(CCc2ccccc2)COC(C(F)(F)F)(C(F)(F)F)C1 (centres undefined)	> 100	> 100	> 100	> 100	> 100	> 100	> 100	> 100	> 100	> 100	> 100	> 100	> 100	> 100	> 100	> 100	> 100	> 100	> 100	
CCN(CC)c1cc2c3c(c1)CCCN3CCC2	> 10	> 10	> 10	> 10	> 10	> 10	> 10	> 10	> 10	> 10	> 10	> 10	> 10	> 10	> 10	> 10	> 10	> 10	> 10	
Cc1cc(C)nc(NS(=O)(=O)c2ccc(NNc3c4ccccc4nc4c(C(=O)Nc5ccc(S(=O)(=O)Nc6ncccn6)cc5)cccc34)cc2)n1	> 100	> 100	> 100	54.3	> 100	> 100	73.1	> 100	92	42.2	> 100	80.1	43.6	65	75.1	73.9	55.2	83.7	> 100	
COC(=O)C(C)NP(=O)(N1CC1)N1CC1 (centres undefined)	> 100	> 100		> 100		> 100	> 100	> 100			> 100	> 100	> 100	> 100	> 100	> 100	> 100	> 100	> 100	> 100
CN(C)c1ccc(/C=N\NC(=O)c2ccccc2Nc2ccccc2C(=O)N/N=C/c2ccc(N(C)C)cc2)cc1	> 100	> 100	> 100	> 100	> 100	> 100	> 100	> 100	> 100	> 100	> 100	> 100	> 100	> 100	> 100	> 100	> 100	> 100	> 100	
O=C1C(=O)c2c(oc(=O)c3ccccc23)-c2ccccc21	> 25	> 25	> 25	> 25	> 25	> 25	> 25	> 25	> 25	> 25	> 25	> 25	> 25	> 25	> 25	> 25	> 25	> 25	> 25	
